Reference: PubChem BioAssay (NCI)
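48-hour exposure; five concentrations; linearly interpolated endpoints. At the GI50, growth is halved. Definition used: TGI = concentration required for complete inhibition of growth.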

Experiments:
Assay in all cases: DTP human tumour cell line panel, 48 h
[1] = system: MDA-MB-435
[2] = system: KM12 colon
[3] = system: MDA-MB-468 breast
[4] = system: M14 melanoma
[5] = system: CAKI-1 renal
[6] = system: OVCAR-4 ovarian
[7] = system: HL-60(TB) leukemia
[8] = system: TK-10 renal
[9] = system: SF-539 CNS
[10] = system: SNB-75 CNS
[11] = system: HCT-116 colon
[12] = system: MCF7 breast
[13] = system: NCI-H522 lung
[14] = system: RXF 393 renal
[15] = system: HOP-92 NSCLC
[16] = system: PC-3 prostate
[17] = system: HCC-2998 colon
[18] = system: MDA-MB-231 breast
[19] = system: SK-MEL-5 melanoma
[20] = system: NCI-H460 lung
[21] = system: A549 NSCLC
[22] = system: SK-MEL-2 melanoma
[23] = system: SK-OV-3 ovarian
[24] = system: EKVX NSCLC
[25] = system: SN12C renal
[26] = system: HT29 colon
[27] = system: ACHN renal
[28] = system: OVCAR-5 ovarian
[29] = system: NCI-H226 lung
[30] = system: DU-145 prostate
[31] = system: NCI/ADR-RES ovarian
[32] = system: BT-549 breast
[33] = system: MOLT-4 leukemia
[34] = system: IGROV1 ovarian
[35] = system: NCI-H23 lung
[36] = system: A498 renal
[37] = system: U251 CNS
[38] = system: SR leukemia
[39] = system: UACC-62 melanoma
[40] = system: OVCAR-3 ovarian
[41] = system: HS 578T breast
[42] = system: CCRF-CEM leukemia
[43] = system: HOP-62 NSCLC
[44] = system: HCT-15 colon
[45] = system: T-47D breast
[46] = system: RPMI-8226 leukemia
[47] = system: UACC-257 melanoma
[48] = system: SNB-19 CNS
[49] = system: SF-268 CNS
[50] = system: COLO 205 colon
[51] = system: K-562 leukemia
[52] = system: UO-31 renal
[53] = system: SK-MEL-28 melanoma
[54] = system: OVCAR-8 ovarian
[55] = system: SF-295 CNS
[56] = system: MALME-3M melanoma
[57] = system: 786-0 renal
[58] = system: LOX IMVI melanoma

## CC1=C2C(=C[C@@](C)(COCOCCCl)[C@@H]2O)C(=O)[C@](C)(O)C12CC2
[1]
  GI50: 0.322 µM
  TGI: 1.09 µM
[2]
  GI50: 0.35 µM
  TGI: 4.83 µM
[3]
  GI50: 0.123 µM
  TGI: 0.299 µM
[4]
  GI50: 0.285 µM
  TGI: 0.99 µM
[5]
  GI50: 0.263 µM
  TGI: 2.1 µM
[6]
  GI50: 0.265 µM
  TGI: 0.86 µM
[7]
  GI50: 0.126 µM
  TGI: 2.13 µM
[8]
  GI50: 0.429 µM
[9]
  GI50: 0.202 µM
  TGI: 0.447 µM
[10]
  GI50: 0.241 µM
  TGI: 1.25 µM
[11]
  GI50: 0.128 µM
  TGI: > 41.5 µM
[12]
  GI50: 0.045 µM
  TGI: 3.18 µM
[13]
  GI50: 0.184 µM
  TGI: 0.495 µM
[14]
  GI50: 0.154 µM
  TGI: 0.351 µM
[15]
  GI50: 0.248 µM
  TGI: 0.685 µM
[16]
  GI50: 0.23 µM
[17]
  GI50: 0.199 µM
  TGI: 0.495 µM
[18]
  GI50: 0.294 µM
  TGI: 1.03 µM
[19]
  GI50: 0.209 µM
  TGI: 0.499 µM
[20]
  GI50: 0.113 µM
  TGI: 0.656 µM
[21]
  GI50: 0.322 µM
  TGI: 6.86 µM
[22]
  GI50: 0.184 µM
  TGI: 0.35 µM
[23]
  GI50: 0.415 µM
  TGI: 2.17 µM
[24]
  GI50: 0.285 µM
  TGI: 0.87 µM
[25]
  GI50: 0.299 µM
  TGI: 1.2 µM
[26]
  GI50: 0.174 µM
[27]
  GI50: 0.0554 µM
  TGI: 0.387 µM
[28]
  GI50: 0.178 µM
  TGI: 1.07 µM
[29]
  GI50: 0.845 µM
  TGI: 4.01 µM
[30]
  GI50: 0.142 µM
  TGI: 1.51 µM
[31]
  GI50: 0.16 µM
  TGI: 0.438 µM
[32]
  GI50: 0.243 µM
  TGI: 0.786 µM
[33]
  GI50: 0.141 µM
  TGI: > 48.3 µM
[34]
  GI50: 0.229 µM
  TGI: 0.961 µM
[35]
  GI50: 0.105 µM
  TGI: 0.304 µM
[36]
  GI50: 1.61 µM
  TGI: 4.99 µM
[37]
  GI50: 0.113 µM
  TGI: 19.9 µM
[38]
  GI50: 0.0647 µM
  TGI: > 100 µM
[39]
  GI50: 0.198 µM
  TGI: 0.429 µM
[40]
  GI50: 0.265 µM
  TGI: 0.765 µM
[41]
  GI50: 0.598 µM
  TGI: 4 µM
[42]
  GI50: 0.626 µM
  TGI: > 33.8 µM
[43]
  GI50: 0.344 µM
  TGI: 1.88 µM
[44]
  GI50: 0.0644 µM
  TGI: 2.55 µM
[45]
  GI50: 0.506 µM
  TGI: 5.69 µM
[46]
  GI50: 3.75 µM
  TGI: > 58.3 µM
[47]
  GI50: 0.647 µM
  TGI: 3.97 µM
[48]
  GI50: 0.346 µM
  TGI: 2.46 µM
[49]
  GI50: 0.305 µM
  TGI: 1.7 µM
[50]
  GI50: 0.258 µM
  TGI: 0.924 µM
[51]
  GI50: 0.445 µM
  TGI: > 100 µM
[52]
  GI50: 0.186 µM
  TGI: 0.549 µM
[53]
  GI50: 0.389 µM
  TGI: 1.31 µM
[54]
  GI50: 0.211 µM
  TGI: 0.79 µM
[55]
  GI50: 0.234 µM
  TGI: 7.76 µM
[56]
  GI50: 0.229 µM
  TGI: 0.509 µM
[57]
  GI50: 0.638 µM
  TGI: 1.98 µM
[58]
  GI50: 0.137 µM
  TGI: 0.493 µM
